The values below come from publication PMC2192203 (The Journal of Experimental Medicine, 1995).

Experiment [1] concerns I-Ek MHC class II molecules. The settings on record: Fig. 2 A legend; control peptide; no reference given; cited from earlier work.
In experiment [2] the target is I-Ed MHC class II molecules (Mus musculus, UniProt P01904+P01915). As to conditions: Fig. 2 B legend; control peptide; no reference given; cited from earlier work.
The subject of experiment [3] is BALB/c-dm2 lymph node T cells primed with Ld 61-80. Put plainly: T cell determinant mapping with overlapping 12 mers. It is filed as cell-based, mouse. As to conditions: dm2 mice primed with Ld 61-80, single residue steps, Fig. 4.
In experiment [4] the test system is CD4+ T cell line P69.2 (Ed-restricted, Ld 61-80-specific). Put plainly: T cell line P69.2 proliferation assay. Type of experiment: cell-based, mouse. The settings on record: for natural presentation of self-peptide: no exogenously added peptide.
Experiment [5] has as its system T cells from Ld 61-80-primed B10.A mice. The settings on record: H-2k class II-restricted; cited from earlier work.
The test system of experiment [6] is lymph node cells from mice immunized with the peptide. As to the kind of experiment: Lymph node / spleen T cell proliferation assay of peptide-immunized mice. Type of experiment: cell-based, mouse.
Experiment [7] deals with CD4+ T cell line B10.A-P11.2 (Ek-restricted, Ld 61-80-specific). Put plainly: T cell line B10.A-P11.2 proliferation assay. Type of experiment: cell-based, mouse. The settings on record: no added peptide.
In experiment [8] the test system is lymph node cells from mice immunized with the peptide. The settings on record: syngeneic B10.A mice; cited from earlier work.
The subject of experiment [9] is MHC class II-restricted presentation by APCs. The settings on record: cited from earlier work.

Consider “HEL 1-17: known binder peptide in the I-Ek competition assay (KVFGRCELAAAMKRHGL; UniProt P00698 19-35, looked up, fragment)”, for which, in experiment [1], the “binding to I-Ek (control designation)” value is given as “known binder”.

As for “HEL 105-120: hen egg white lysozyme (HEL) 105-120 peptide known for its binding to Ed (MNAWVAWRNRCKGTDV; UniProt P00698 123-138, looked up, fragment)”, in experiment [2], the “binding to I-Ed (control designation)” value was “known binder”.

For the substance EtLITQIAKGQEQWFILVNLR,T [Ld 61-80], the figures for the “core region of determinant (residues)” value in [3] and in [5] were 69-76 and 66-74, respectively. Further, the “natural presentation of self-peptide” value in experiment [4] ((B10.A x B10.D2) F1 APCs, Fig. 3 C) is “could not spontaneously process and present”; in experiment [4] (BALB/c APCs, Fig. 3 B) it was “continuously process and present”; in experiment [7] (B10.A splenocytes, Fig. 3 A), “did not naturally process”; in [7] (B10.A(5R) APCs, Fig. 7), “present spontaneously”. Also, the “stimulation of P69.2 in presence of specific peptide” value in experiment [4] (B10.GD splenocytes (lacking Ed) as APCs) was “could not stimulate”. The “stimulation of P69.2 by added peptide” value in [4] (dm2 APCs, 60 h, [3H]thymidine last 12 h, Fig. 3 B) is “required”. The immunogenicity entry in [6] ((B10.A x B10.D2) F1 mice (Fig. 1 D)) was “immunogenic and therefore cryptic”; in experiment [6] (A/J mice (Table 1)), “vigorous T cell responses”; in experiment [6] (B10.AKM mice (Table 2)) it was “immunogenic”; in experiment [6] (B10.D2 mice (Table 1)), “failed to respond”; in experiment [6] (BALB/c mice (Fig. 1 B)), “nonimmunogenic”; in [6] (DBA/2 mice (Table 1)), “nonimmunogenic”. Besides, the immunogenicity entry in [6] (dm2 mutant mice, not expressing Ld (Fig. 1 C)) is reported as “immunogenic”. For the same substance, the “phenotype of self-peptide (cryptic or dominant)” value is recorded as “cryptic” in experiment [6] (A.TL and B10.MBR mice); “dominant” in experiment [6] (B10.A(5R) mice); “dominant” in experiment [6] (parental H-2s and H-2b mice). For the same substance, the “T cell proliferation after immunization” value in experiment [6] (B10.A(5R) mice (Fig. 6), five mice tested individually) is listed as “no T cell proliferation was detected”. For the same substance, the “T cell response induced” value in experiment [8] is “potent MHC class II-restricted T cell responses”. For the same substance, the “in vitro presentation by BALB/c APCs” value in experiment [9] (BALB/c APCs, self-MHC class II) is recorded as “regularly presented in vitro”. Besides, the “stimulation of Ld 61-80-specific class II-restricted T cell hybridoma” value in [9] (Ii-positive and -negative APCs) is “could be stimulated in the presence of both Ii- positive and -negative APCs”. Also, the “TAP-1 requirement of class II presentation” value in experiment [9] is “does not require a functional TAP-1 protein”.
